Measured values as given in US12698507B2, “Methods and compositions for conferring and/or enhancing herbicide tolerance using protoporphyrinogen IX oxidase of various cyanobacteria or variant thereof” (FarmHannong Co., Ltd., priority 2019, dated 2026).
Where two headings read alike, the source gives them in different places.

How the values were obtained:
[1] = molecular target: Thermosynechococcus elongatus PKUAC-SCTE542 protoporphyrinogen IX oxidase CyPPO19 (SEQ ID NO: 1) variant A167C (MBP fusion) (Thermosynechococcus sichuanensis, UniProt A0A7D6JSC1, A167C); assay: biochemical
[2] = test system: PPO-deficient BT3 E. coli (ΔPPO) transformed with CyPPO19 variant R89A+F360L (Thermosynechococcus elongatus PKUAC-SCTE542, SEQ ID NO: 1); assay: Herbicide tolerance test in E. coli, CyPPO19 R89A+F360L; type: cell-based; conditions: LB agar, 0 to 2,000 μM herbicide, 37° C., 16-20 hours
Description: (§1) To enhance the PPO-inhibiting herbicide resistance of CyPPO19 and CyPPO18, PPO variant genes of the above example 2 were constructed. They were transformed to BT3 (ΔPPO) strain which is deficient of PPO activity and cultured in LB media with PPO-inhibiting herbicide, thereby examining whether growth of transformed BT3 was not inhibited.
(§2) BT3 competent cells were transformed with the pET303-CyPPO19 (wild type), pET303-CyPPO18 (wild type) plasmids, and those with a mutation(s) constructed (refer to example 2) via heat shock method, and were cultured in LB agar media containing ampicillin.
(§3) Single colony transformed with each CyPPO gene was cultured in 3 mL of LB broth (LPSS) containing ampicillin for more than 12 hours, and then was subcultured in LB broth until absorbance (OD600) reached 0.5 to 1. Then, it was diluted with LB broth to OD600=0.5. Again, the diluted solution was serially diluted 4 times by a factor of one tenth. […]
(§4) Then, 10 μL of each diluted solution of E. coli was dropped on the plate and cultured at 37° C. under dark for 16-20 hours. PPO-inhibiting herbicide resistance was evaluated with the extent of E. coli growth containing each gene was observed.
(§5) The extent of herbicide resistance was evaluated by the relative growth of variants to that of wild type, and listed in Tables 9 and 10 and FIGS. 3 to 32. […]

[3] = molecular target: Thermosynechococcus vulcanus NIES-2134 protoporphyrinogen IX oxidase CyPPO18 (SEQ ID NO: 3) variant A167L (MBP fusion) (Thermosynechococcus vestitus, UniProt Q8DLV2, A167L); assay: PPO enzyme inhibition assay (IC50 for herbicides), CyPPO18 A167L fused to MBP; type: biochemical; conditions: 50 μM protoporphyrinogen IX, pH 7.5, room temperature, 30 min
[4] = molecular target: Thermosynechococcus elongatus PKUAC-SCTE542 protoporphyrinogen IX oxidase CyPPO19 (SEQ ID NO: 1) variant A167L (MBP fusion) (Thermosynechococcus sichuanensis, UniProt A0A7D6JSC1, A167L); assay: biochemical; conditions: 50 μM protoporphyrinogen IX, pH 7.5, room temperature, 30 min, 10,000 means equivalent to or higher
[5] = molecular target: Thermosynechococcus vulcanus NIES-2134 protoporphyrinogen IX oxidase CyPPO18 (SEQ ID NO: 3) variant V305M (MBP fusion) (Thermosynechococcus vestitus, UniProt Q8DLV2, V305M); assay: PPO enzyme inhibition assay (IC50 for herbicides), CyPPO18 V305M fused to MBP; type: biochemical; conditions: 50 μM protoporphyrinogen IX, pH 7.5, room temperature, 30 min
[6] = molecular target: Thermosynechococcus vulcanus NIES-2134 protoporphyrinogen IX oxidase CyPPO18 (SEQ ID NO: 3) variant A167I (MBP fusion) (Thermosynechococcus vestitus, UniProt Q8DLV2, A167I); assay: PPO enzyme inhibition assay (IC50 for herbicides), CyPPO18 A167I fused to MBP; type: biochemical; conditions: 50 μM protoporphyrinogen IX, pH 7.5, room temperature, 30 min
[7] = molecular target: Thermosynechococcus elongatus PKUAC-SCTE542 protoporphyrinogen IX oxidase CyPPO19 (SEQ ID NO: 1) variant V305L (MBP fusion) (Thermosynechococcus sichuanensis, UniProt A0A7D6JSC1, V305L); assay: PPO enzyme inhibition assay (IC50 for herbicides), CyPPO19 V305L fused to MBP; type: biochemical
[8] = molecular target: Thermosynechococcus elongatus PKUAC-SCTE542 protoporphyrinogen IX oxidase CyPPO19 (SEQ ID NO: 1) variant A167I (MBP fusion) (Thermosynechococcus sichuanensis, UniProt A0A7D6JSC1, A167I); assay: biochemical; conditions: 50 μM protoporphyrinogen IX, pH 7.5, room temperature, 30 min, 10,000 means equivalent to or higher
[9] = test system: PPO-deficient BT3 E. coli (ΔPPO) transformed with CyPPO18 variant A167L+F360I (Thermosynechococcus vulcanus NIES-2134, SEQ ID NO: 3); assay: Herbicide tolerance test in E. coli, CyPPO18 A167L+F360I; type: cell-based; conditions: LB agar, 0 to 2,000 μM herbicide, 37° C., 16-20 hours
Description: as §1, §2, §3, §4, §5

[10] = test system: PPO-deficient BT3 E. coli (ΔPPO) transformed with CyPPO19 variant V165C+F360V (Thermosynechococcus elongatus PKUAC-SCTE542, SEQ ID NO: 1); assay: Herbicide tolerance test in E. coli, CyPPO19 V165C+F360V; type: cell-based; conditions: LB agar, 0 to 2,000 μM herbicide, 37° C., 16-20 hours
Description: as §1, §2, §3, §4, §5

[11] = molecular target: Thermosynechococcus vulcanus NIES-2134 protoporphyrinogen IX oxidase CyPPO18 (SEQ ID NO: 3) variant V165S (MBP fusion) (Thermosynechococcus vestitus, UniProt Q8DLV2, V165S); assay: PPO enzyme inhibition assay (IC50 for herbicides), CyPPO18 V165S fused to MBP; type: biochemical; conditions: 50 μM protoporphyrinogen IX, pH 7.5, room temperature, 30 min
[12] = test system: PPO-deficient BT3 E. coli (ΔPPO) transformed with CyPPO18 variant R89A+F360V (Thermosynechococcus vulcanus NIES-2134, SEQ ID NO: 3); type: cell-based; conditions: LB agar, 0 to 2,000 μM herbicide, 37° C., 16-20 hours
Description: as §1, §2, §3, §4, §5

[13] = molecular target: Thermosynechococcus elongatus PKUAC-SCTE542 protoporphyrinogen IX oxidase CyPPO19 (SEQ ID NO: 1) variant V165S (MBP fusion) (Thermosynechococcus sichuanensis, UniProt A0A7D6JSC1, V165S); assay: biochemical; conditions: 50 μM protoporphyrinogen IX, pH 7.5, room temperature, 30 min, 10,000 means equivalent to or higher
[14] = test system: PPO-deficient BT3 E. coli (ΔPPO) transformed with CyPPO19 variant R89A+F360T (Thermosynechococcus elongatus PKUAC-SCTE542, SEQ ID NO: 1); assay: Herbicide tolerance test in E. coli, CyPPO19 R89A+F360T; type: cell-based; conditions: LB agar, 0 to 2,000 μM herbicide, 37° C., 16-20 hours
Description: as §1, §2, §3, §4, §5

[15] = test system: PPO-deficient BT3 E. coli (ΔPPO) transformed with CyPPO18 variant R89A+V165C+F360I (Thermosynechococcus vulcanus NIES-2134, SEQ ID NO: 3); assay: Herbicide tolerance test in E. coli, CyPPO18 R89A+V165C+F360I; type: cell-based; parameters: key to the marks not given beside the values; conditions: LB agar, 0 to 2,000 μM herbicide, 37° C., 16-20 hours
Description: as §1, §2, §3, §4, §5

Sequence of Thermosynechococcus vulcanus NIES-2134 protoporphyrinogen IX oxidase CyPPO18 (SEQ ID NO: 3) variant V165S (MBP fusion) (Q8DLV2 entry or part of it V165S): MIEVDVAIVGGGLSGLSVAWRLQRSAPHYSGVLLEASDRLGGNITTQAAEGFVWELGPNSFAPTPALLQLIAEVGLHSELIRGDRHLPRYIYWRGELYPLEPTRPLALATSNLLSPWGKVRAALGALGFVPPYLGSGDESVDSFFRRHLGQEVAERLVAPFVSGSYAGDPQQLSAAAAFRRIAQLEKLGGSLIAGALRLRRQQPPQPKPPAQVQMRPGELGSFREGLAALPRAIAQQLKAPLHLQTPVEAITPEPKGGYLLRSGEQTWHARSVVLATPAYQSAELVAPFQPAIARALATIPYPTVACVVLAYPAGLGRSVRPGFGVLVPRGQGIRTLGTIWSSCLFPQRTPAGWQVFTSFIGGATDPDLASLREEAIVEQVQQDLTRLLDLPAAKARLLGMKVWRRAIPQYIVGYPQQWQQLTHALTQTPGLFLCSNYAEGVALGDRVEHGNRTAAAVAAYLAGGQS
Sequence of Thermosynechococcus vulcanus NIES-2134 protoporphyrinogen IX oxidase CyPPO18 (SEQ ID NO: 3) variant A167I (MBP fusion) (Q8DLV2 entry or part of it A167I): as the sequence (Q8DLV2 entry or part of it V165S) above, with S165V, A167I counted along it
Sequence of Thermosynechococcus elongatus PKUAC-SCTE542 protoporphyrinogen IX oxidase CyPPO19 (SEQ ID NO: 1) variant A167I (MBP fusion) (A0A7D6JSC1 entry or part of it A167I): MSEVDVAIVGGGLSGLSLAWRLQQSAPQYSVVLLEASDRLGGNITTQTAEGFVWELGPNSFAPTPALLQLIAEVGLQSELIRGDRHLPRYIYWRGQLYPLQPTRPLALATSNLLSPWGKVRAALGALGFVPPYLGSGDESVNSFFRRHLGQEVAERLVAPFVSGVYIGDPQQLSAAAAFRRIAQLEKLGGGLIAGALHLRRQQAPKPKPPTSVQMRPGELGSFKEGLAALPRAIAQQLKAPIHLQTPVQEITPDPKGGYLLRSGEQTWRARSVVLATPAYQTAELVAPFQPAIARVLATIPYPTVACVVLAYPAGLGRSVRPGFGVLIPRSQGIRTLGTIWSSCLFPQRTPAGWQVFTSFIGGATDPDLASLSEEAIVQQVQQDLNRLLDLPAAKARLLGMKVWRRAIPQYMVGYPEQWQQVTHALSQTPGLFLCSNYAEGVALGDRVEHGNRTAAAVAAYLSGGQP
Sequence of Thermosynechococcus elongatus PKUAC-SCTE542 protoporphyrinogen IX oxidase CyPPO19 (SEQ ID NO: 1) variant V305L (MBP fusion) (A0A7D6JSC1 entry or part of it V305L): as the sequence (A0A7D6JSC1 entry or part of it A167I) above, with I167A, V305L counted along it
Sequence of Thermosynechococcus elongatus PKUAC-SCTE542 protoporphyrinogen IX oxidase CyPPO19 (SEQ ID NO: 1) variant V165S (MBP fusion) (A0A7D6JSC1 entry or part of it V165S): as the sequence (A0A7D6JSC1 entry or part of it A167I) above, with V165S, I167A counted along it
Sequence of Thermosynechococcus elongatus PKUAC-SCTE542 protoporphyrinogen IX oxidase CyPPO19 (SEQ ID NO: 1) variant A167C (MBP fusion) (A0A7D6JSC1 entry or part of it A167C): as the sequence (A0A7D6JSC1 entry or part of it A167I) above, with I167C counted along it
Sequence of Thermosynechococcus vulcanus NIES-2134 protoporphyrinogen IX oxidase CyPPO18 (SEQ ID NO: 3) variant A167L (MBP fusion) (Q8DLV2 entry or part of it A167L): as the sequence (Q8DLV2 entry or part of it V165S) above, with S165V, A167L counted along it
Sequence of Thermosynechococcus elongatus PKUAC-SCTE542 protoporphyrinogen IX oxidase CyPPO19 (SEQ ID NO: 1) variant A167L (MBP fusion) (A0A7D6JSC1 entry or part of it A167L): as the sequence (A0A7D6JSC1 entry or part of it A167I) above, with I167L counted along it
Sequence of Thermosynechococcus vulcanus NIES-2134 protoporphyrinogen IX oxidase CyPPO18 (SEQ ID NO: 3) variant V305M (MBP fusion) (Q8DLV2 entry or part of it V305M): as the sequence (Q8DLV2 entry or part of it V165S) above, with S165V, V305M counted along it

SMILES | IC50 ([1]; CyPPO19 A167C, 50 μM protoporphyrinogen IX, pH 7.5, room temperature, 30 min) | tolerance level (relative growth of variant to wild type) [2] | IC50 [3] | IC50 [4] | IC50 [5] | IC50 [6] | IC50 ([7]; CyPPO19 V305L, 50 μM protoporphyrinogen IX, pH 7.5, room temperature, 30 min) | IC50 [8] | tolerance level (relative growth of variant to wild type) [9] | tolerance level (relative growth of variant to wild type) [10] | IC50 [11] | tolerance level (relative growth of variant to wild type) [12] | IC50 [13] | tolerance level (relative growth of variant to wild type) [14] | tolerance level (relative growth of variant to wild type) [15] | IC50 [1] | IC50 ([4]; read-out: IC50) | IC50 [7] | IC50 ([8]; read-out: IC50) | IC50 ([13]; read-out: IC50)
Cc1nn(-c2cc(CC(Cl)C(=O)O)c(Cl)cc2F)c(=O)n1C(F)F (stereo not drawn) [Carfentrazone] | 3530 nM | + | 4010 nM | ≥ 10000 nM | 1610 nM | 2600 nM | 1330 nM | ≥ 10000 nM | ++ | + | 2230 nM | ++ | ≥ 10000 nM | + | ++ |  |  |  |  | 
CCOc1cc(Oc2ccc(C(F)(F)F)cc2Cl)ccc1[N+](=O)[O-] [Oxyfluorfen] |  | + | 2810 nM |  | 355 nM | 2000 nM |  |  | + | ++ | 1490 nM | + |  | + | ++ | 649 nM | 5260 nM | 793 nM | 1330 nM | 1670 nM
